Assay results taken from patent US20030013883A1, “Tropane analogs binding to monoamine transporters” (priority 2000, published 2003).
pKi: −log10 of the molar value. Like-named read-outs stand apart in the source and are kept apart here.

Legend:
[1] = target: T1, norepinephrine transporter (NET) (Rattus norvegicus, UniProt Q63380); assay: Radioligand binding to norepinephrine transporter, [3H]nisoxetine, rat cerebral cortex homogenate
T1 construct: from tissue; host or cells: rat cerebral cortex
T1 sequence (Q63380 1-617): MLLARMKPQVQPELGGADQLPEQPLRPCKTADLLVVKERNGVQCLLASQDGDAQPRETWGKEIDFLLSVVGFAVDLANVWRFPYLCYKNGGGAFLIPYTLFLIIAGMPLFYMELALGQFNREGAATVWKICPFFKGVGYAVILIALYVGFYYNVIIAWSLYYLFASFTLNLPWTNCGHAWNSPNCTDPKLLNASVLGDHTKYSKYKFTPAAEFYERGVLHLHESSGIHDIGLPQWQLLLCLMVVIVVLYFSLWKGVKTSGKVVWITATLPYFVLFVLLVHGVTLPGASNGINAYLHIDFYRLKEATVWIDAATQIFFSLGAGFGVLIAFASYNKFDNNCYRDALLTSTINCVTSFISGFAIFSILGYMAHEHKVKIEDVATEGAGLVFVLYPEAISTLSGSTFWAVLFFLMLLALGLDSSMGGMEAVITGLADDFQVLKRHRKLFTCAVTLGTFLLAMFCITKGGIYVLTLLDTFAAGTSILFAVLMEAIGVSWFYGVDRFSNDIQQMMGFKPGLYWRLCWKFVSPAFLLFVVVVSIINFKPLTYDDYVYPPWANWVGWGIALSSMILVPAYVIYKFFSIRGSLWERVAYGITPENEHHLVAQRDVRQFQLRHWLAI
Description: (§1) 30: 89-92, 1990; Andersen, P. H., J. Neurochem. 48:1887-1896, 1987).

[2] = target: dopamine transporter (DAT) (Rattus norvegicus, UniProt P23977); assay: Radioligand binding to dopamine transporter, [3H]GBR-12935, rat corpus striatum homogenate;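 note: displacement read as filter-bound tritium by liquid scintillation counting, roughly 1 mg wet tissue per tube, IC50 from fitted concentration-inhibition curves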
dopamine transporter (DAT), sequence (P23977 whole entry): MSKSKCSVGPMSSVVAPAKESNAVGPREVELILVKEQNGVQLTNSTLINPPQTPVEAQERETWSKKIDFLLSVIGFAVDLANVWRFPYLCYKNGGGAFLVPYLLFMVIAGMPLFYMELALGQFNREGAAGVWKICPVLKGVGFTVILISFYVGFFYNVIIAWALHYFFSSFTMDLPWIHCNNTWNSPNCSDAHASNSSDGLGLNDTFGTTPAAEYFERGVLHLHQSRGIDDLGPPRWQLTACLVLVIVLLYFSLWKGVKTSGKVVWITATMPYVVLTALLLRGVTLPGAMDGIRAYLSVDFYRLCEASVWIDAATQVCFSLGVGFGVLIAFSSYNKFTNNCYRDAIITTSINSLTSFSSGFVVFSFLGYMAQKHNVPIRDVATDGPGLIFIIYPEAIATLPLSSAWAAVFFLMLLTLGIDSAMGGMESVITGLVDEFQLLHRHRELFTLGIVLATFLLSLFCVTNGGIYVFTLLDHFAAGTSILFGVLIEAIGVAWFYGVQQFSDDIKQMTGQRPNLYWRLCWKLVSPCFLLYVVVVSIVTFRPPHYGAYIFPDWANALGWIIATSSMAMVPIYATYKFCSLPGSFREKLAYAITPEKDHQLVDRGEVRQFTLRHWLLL
Description: For DAT assays, corpus striatum tissue from rat forebrain was rapidly dissected on ice, pooled, weighed, and homogenized at 30 mg/mL in cold DAT buffer (50 mM Tris citrate, pH 7.4, 120 mM NaCl, 4 mM MgCl2) and stored at −70° C. The pellet was suspended in the assay buffer to provide the equivalent of about 1 mg of wet weight per assay tube.
L=400 pM) and 1.0 μM GBR-12909 (Research Biochemicals International, Natick, Mass.) as blank (Kula, N. S. et al., Neuropharmacology.
Assay tubes were incubated at room temperature for 120 min (SERT) or on ice for 180 min (NET) or 45 min (DAT). Labeled tissue samples were recovered in a Brandel Cell Harvester on glass fiber filter sheets saturated with 0.3% (v/v) aqueous polyethyleneimine, washed with ice-cold 0.9% NaCl, and counted for tritium in a liquid scintillation counter. Concentration-inhibition curves were computer-fit to determine IC50±SEM and converted to Ki values in nM from the Cheng -Prusoff relationship Ki=IC50/(1+[L]/Kd).

[3] = target: T2, serotonin transporter (SERT) (Rattus norvegicus, UniProt P31652); assay: Radioligand binding to serotonin transporter, [3H]paroxetine, rat cerebral cortex homogenate; details: for Selectivity for SERT: ratio of Ki for NET or DAT to that for SERT (values match DAT/SERT), larger number is more selective for SERT
T2 construct: For SERT and NET assays, rat cerebral cortex was homogenized in cold SERT assay buffer; from tissue; host or cells: rat cerebral cortex
T2 sequence (P31652 whole entry): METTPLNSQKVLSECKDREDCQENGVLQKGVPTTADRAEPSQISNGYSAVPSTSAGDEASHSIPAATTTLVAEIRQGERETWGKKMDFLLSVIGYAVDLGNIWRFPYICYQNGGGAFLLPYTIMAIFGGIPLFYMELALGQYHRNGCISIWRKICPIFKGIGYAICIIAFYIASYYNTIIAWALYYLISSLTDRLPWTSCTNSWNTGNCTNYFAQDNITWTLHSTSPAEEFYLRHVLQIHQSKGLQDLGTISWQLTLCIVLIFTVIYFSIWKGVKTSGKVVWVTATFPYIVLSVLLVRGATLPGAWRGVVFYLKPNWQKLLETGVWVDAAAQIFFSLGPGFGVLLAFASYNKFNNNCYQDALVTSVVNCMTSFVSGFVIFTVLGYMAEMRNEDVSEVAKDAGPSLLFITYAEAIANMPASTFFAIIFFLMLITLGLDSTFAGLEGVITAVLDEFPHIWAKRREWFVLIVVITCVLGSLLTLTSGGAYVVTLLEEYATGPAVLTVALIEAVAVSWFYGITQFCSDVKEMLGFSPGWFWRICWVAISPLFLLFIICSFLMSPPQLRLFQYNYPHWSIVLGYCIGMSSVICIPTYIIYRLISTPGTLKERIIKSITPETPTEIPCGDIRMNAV
Description: as §1

[4] = rat cerebral cortex membranes, [3H]nisoxetine 600 pM, on ice 180 min, Ki from IC50 by Cheng-Prusoff, read-out: NET (Ki)
[5] = read-out: DAT (Ki), rat corpus striatum membranes, [3H]GBR-12935 400 pM, on ice 45 min, Ki from IC50 by Cheng-Prusoff
[6] = rat cerebral cortex membranes, [3H]paroxetine 200 pM, room temperature 120 min, Ki from IC50 by Cheng-Prusoff, read-out: SERT (Ki)

Which results are given for `COC(=O)C1C(c2ccc(-c3cccc(O)c3)cc2)CC2CCC1N2C` (centres unmarked) [Compound 2]?
pKi [1, 4]: 6.81; pKi [2, 5]: 7.82

With `COC(=O)C1C(c2ccc(-c3ccccc3OC)cc2)CC2CCC1N2C` (centres unmarked) [Compound 3a] as the molecule, how does the pKi [1, 4] read?
The pKi was < 5.00.

And the pKi [2, 5]?
The pKi was 6.45.

With `COC(=O)C1C(c2ccc(-c3cccc(OC)c3)cc2)CC2CCC1N2C` (centres unmarked) [Compound 3b] as the molecule, how does the pKi [3, 6] read?
The pKi was 8.72.

And the “Selectivity for SERT” value [3]?
Its value is 31.1.

What about the pKi [1, 4] of the same molecule?
Its pKi is < 5.52.

What about the pKi [2, 5] of the same molecule?
Its pKi is 7.23.

Which results are given for `COC(=O)C1C(c2ccc(-c3ccc(OC)cc3)cc2)CC2CCC1N2C` (centres unmarked) [Compound 3c]?
pKi [3, 6]: 7.49; Selectivity for SERT [3]: 0.41; pKi [1, 4]: 6.45; pKi [2, 5]: 7.88

Which results are given for `COC(=O)C1C(c2ccc(-c3ccccc3[N+](=O)[O-])cc2)CC2CCC1N2C` (centres unmarked) [Compound 4a]?
Selectivity for SERT [3]: 1; pKi [1, 4]: < 5.52

Which results are given for `COC(=O)C1C(c2ccc(-c3cccc([N+](=O)[O-])c3)cc2)CC2CCC1N2C` (centres unmarked) [Compound 4b]?
pKi [3, 6]: 9.10; Selectivity for SERT [3]: 11.9; pKi [1, 4]: 6.02; pKi [2, 5]: 8.02

With `COC(=O)C1C(c2ccc(-c3ccc([N+](=O)[O-])cc3)cc2)CC2CCC1N2C` (centres unmarked) [Compound 4c] as the molecule, how does the pKi [3, 6] read?
Its pKi is 7.53.

What about the “Selectivity for SERT” value [3] of the same molecule?
Its value is 0.17.

What about the pKi [1, 4] of the same molecule?
Its pKi is 6.43.

What about the pKi [2, 5] of the same molecule?
The pKi was 8.29.

With `COC(=O)C1C(c2ccc(-c3cccc(N)c3)cc2)CC2CCC1N2C` (centres unmarked) [Compound 5] as the molecule, how does the pKi [1, 4] read?
Its pKi is 6.18.

What about the pKi [2, 5] of the same molecule?
The pKi was 7.62.

With `COC(=O)C1C(c2ccc(-c3ccccc3C(C)=O)cc2)CC2CCC1N2C` (centres unmarked) [Compound 6a] as the molecule, how does the pKi [1, 4] read?
The pKi was < 4.70.

And the pKi [2, 5]?
The pKi was 5.99.

With `COC(=O)C1C(c2ccc(-c3cccc(C(C)=O)c3)cc2)CC2CCC1N2C` (centres unmarked) [Compound 6b] as the molecule, how does the pKi [1, 4] read?
Its pKi is < 4.30.

And the pKi [2, 5]?
Its pKi is 7.91.

What does the source list for `COC(=O)C1C(c2ccc(-c3ccc(C(C)=O)cc3)cc2)CC2CCC1N2C` (centres unmarked) [Compound 6c]?
pKi [1, 4]: 6.12; pKi [2, 5]: 7.72

With `COC(=O)[C@H]1[C@@H](c2ccc(-c3cccc(CNC(=O)OC(C)(C)C)c3)cc2)C[C@@H]2CC[C@H]1N2C` [Compound 7, 3β-[3′-(tert-Butoxycarbonylaminomethyl)biphenyl-4-yl]-Tropane-2β-carboxylic acid methyl ester] as the molecule, how does the “Selectivity for SERT” value [3] read?
Its value is 1.

What about the pKi ([3]; read-out: SERT (Ki)) of the same molecule?
Its pKi is < 5.00.

What about the pKi [1, 4] of the same molecule?
Its pKi is < 4.52.

What about the pKi [2] of the same molecule?
The pKi was < 5.00.

Which “Selectivity for SERT” value [3] does the source give for `COC(=O)C1C(c2ccc(-c3cccc(C(=O)c4ccccc4)c3)cc2)CC2CCC1N2C` (centres unmarked) [Compound 8] here?
Its value is 1.

What about the pKi ([3]; read-out: SERT (Ki)) of the same molecule?
The pKi was < 5.52.

And the pKi [1, 4]?
Its pKi is < 5.52.

And the pKi [2]?
The pKi was < 5.52.

With `COC(=O)C1C(c2ccc(-c3cccc(C4OCCO4)c3)cc2)CC2CCC1N2C` (centres unmarked) [Compound 9] as the molecule, how does the “Selectivity for SERT” value [3] read?
Its value is 0.03.

What about the pKi ([3]; read-out: SERT (Ki)) of the same molecule?
The pKi was < 5.00.

What about the pKi [1, 4] of the same molecule?
Its pKi is < 4.52.

What about the pKi [2] of the same molecule?
Its pKi is 6.44.

Which “Selectivity for SERT” value [3] does the source give for `COC(=O)C1C2CCC(CC1c1ccc(-c3cccc(OC)c3)cc1)N2` (stereo not drawn) [Compound 10, 3β-(3′-methoxybiphenyl-4-yl)nortropane-2β-carboxylic acid methyl ester] here?
Its value is 306.

And the pKi ([3]; read-out: SERT (Ki))?
Its pKi is 8.63.

And the pKi [1, 4]?
Its pKi is 6.53.

What about the melting point of the same molecule?
The melting point was 102 to 104 °C.

What about the pKi [2] of the same molecule?
Its pKi is 6.15.

What does the source list for `COC(=O)[C@H]1[C@@H](c2ccc(-c3cccs3)cc2)C[C@@H]2CC[C@H]1N2C` [Compound 11, 3β-(4-Thiophen-2-yl-phenyl)tropane-2β-carboxylic acid methyl ester]?
pKi [3]: 9.82; Selectivity for SERT [3]: 346; pKi [1]: 6.80; pKi [2]: 7.28

Which results are given for `COC(=O)[C@H]1[C@@H](c2ccc(-c3ccsc3)cc2)C[C@@H]2CC[C@H]1N2C` [Compound 12, 3β-(4-Thiophen-3-yl-phenyl)tropane-2β-carboxylic acid methyl ester]?
pKi [3]: 9.77; Selectivity for SERT [3]: 711; pKi [1]: 6.72; pKi [2]: 7.92

Which results are given for `COC(=O)C1C(c2ccc(-c3ccco3)cc2)CC2CCC1N2C` (centres unmarked) [Compound 13]?
pKi [3, 6]: 8.95; Selectivity for SERT [3]: 6.32; pKi [1]: 5.85; pKi [2, 5]: 8.15

With `COC(=O)[C@H]1[C@@H](c2ccc(-c3nccs3)cc2)C[C@@H]2CC[C@H]1N2C` [Compound 14, 3β-(4-Thiazol-2-yl-phenyl)tropane-2β-carboxylic acid methyl ester] as the molecule, how does the pKi [3] read?
Its pKi is 8.78.

And the “Selectivity for SERT” value [3]?
The value was 310.

What about the pKi [1] of the same molecule?
The pKi was < 5.00.

And the pKi [2]?
The pKi was 6.28.

With `COC(=O)C1C(c2ccc(-c3ccccn3)cc2)CC2CCC1N2C` (centres unmarked) [Compound 15] as the molecule, how does the pKi [3, 6] read?
Its pKi is 6.79.

What about the “Selectivity for SERT” value [3] of the same molecule?
The value was 0.27.

What about the pKi [1, 4] of the same molecule?
The pKi was ≤ 5.00.

And the pKi [2, 5]?
The pKi was 7.36.

With `COC(=O)C1C(c2ccc(-c3cccnc3)cc2)CC2CCC1N2C` (centres unmarked) [Compound 16] as the molecule, how does the pKi [3, 6] read?
Its pKi is 8.45.

What about the “Selectivity for SERT” value [3] of the same molecule?
Its value is 7.3.

What about the pKi [1, 4] of the same molecule?
The pKi was 5.85.

And the pKi [2]?
The pKi was 7.58.

With `COC(=O)C1C2CCC(CC1c1ccc(-c3cncc(OC)c3)cc1)N2` (stereo not drawn) [Compound 18, 3β-[4-(5′-Methoxypyridin-3-yl)-phenyl]nortropane-2β-Carboxylic Acid Methyl Ester] as the molecule, how does the “Selectivity for SERT” value [3] read?
Its value is 150.

What about the pKi ([3]; read-out: SERT (Ki)) of the same molecule?
Its pKi is 8.41.

And the pKi [1, 4]?
Its pKi is 5.80.

And the pKi [2]?
Its pKi is 6.23.

Which results are given for `COC(=O)C1C(c2ccc(-c3cncnc3)cc2)CC2CCC1N2C` (centres unmarked) [Compound 19]?
pKi [3, 6]: 7.48; Selectivity for SERT [3]: 10.4; pKi [1, 4]: < 5.00; pKi [2, 5]: 6.46

Which results are given for `COC(=O)C1C(c2ccc(-c3cnc4ccccc4c3)cc2)CC2CCC1N2C` (centres unmarked) [Compound 20]?
pKi [3, 6]: 7.70; Selectivity for SERT [3]: 3.0; pKi [1, 4]: < 5.52; pKi [2, 5]: 7.22

For `COC(=O)C1C(c2ccc(-c3cncc4ccccc34)cc2)CC2CCC1N2C` (centres unmarked) [Compound 21], which “Selectivity for SERT” value [3] is on record?
Its value is 10.

And the pKi [1, 4]?
Its pKi is < 5.00.

And the pKi [2]?
The pKi was < 4.52.
